Article PMC5859250, “Contribution of transformation products towards the total herbicide toxicity to tropical marine organisms” (Scientific Reports, 2018)

What was measured:
[1] = Herbicide degradation in outdoor tanks with coastal seawater and sediment (330 d); assay type: physicochemical; conditions: day 330, in tank of the parent herbicide, measured or estimated
Source text: Photosystem II herbicides/transformation product solutions were produced by adding herbicides to seawater within separate 120 l outdoor fibreglass tanks, in the presence of natural coastal sediments (further details can be found in Mercurio 2016)[36]. […] The tanks used were previously described in Mercurio et al.[8], with treatment water being partially shaded (70%) and exposed to a maximum of 700 µmol photons m^−2s^−1 over the course of the experiment. The application of a natural diurnal light regime and coastal sediment were previously shown to increase the rates of PSII herbicide degradation and represent more natural conditions than those used in standard degradation tests[8],[36]. Evaporation was minimised with loose-fitting clear acrylic lids and the water continuously circulated using Turbelle Nanostream pumps. Prior to every sampling period evaporation losses were replenished with equal volumes of MilliQ water. The average temperature was 25.7 °C with a range of 15.6–36.6 °C over the course of the study. Unfiltered coastal seawater and sediments were collected from the intertidal zone adjacent to the Australian Institute of Marine Science (19°16′S, 147°03′E), Cape Cleveland, QLD. The sediments were prepared one week prior to use by sieving (>2 mm removed) and thorough mixing. Each tank contained 5 kg of sediment. Physical and chemical information on the seawater and sediments used the treatments can be found in SOM Table 1.
The 20 tanks included replicates for control seawater (n = 4) and the PSII herbicides diuron (n = 4), atrazine (n = 3), simazine (n = 3), hexazinone (n = 3), and ametryn (n = 3). Herbicide treatments and replicates were randomized among tanks. The herbicides were purchased from Sigma Aldrich (>95% purity) and were introduced at ~1 mg l^−1 to enable direct chemical and toxicological testing of the herbicide transformation product mixtures without additional concentration steps. […] The same concentration was used in the controls. Sample collection, internal standard addition, and analytical techniques (HPLC-MS/MS using an AB/Sciex API5500Q mass spectrometer equipped with an electrospray interface and coupled to a Shimadzu Prominence HPLC system) were as previously reported[7],[36]. […] Individual replicates were analysed using HPLC/TripleTOF mass spectrometry for possible transformation products as described in Mercurio 2016[36]. Briefly, 0.2 µm-filtered samples were directly injected into an ABSciex API5600+ Triple TOF mass spectrometer (ABSciex, Concord, Ontario, Canada) equipped with an electrospray (TurboV) interface coupled to a Shimadzu Nexera HPLC system (Shimadzu Corp., Kyoto, Japan). Separation was achieved using a 4 micron 50 × 2.0 mm Phenomenex Synergi Fusion RP column (Phenomenex, Torrance, CA) run at 45 °C, and a flow rate of 0.4 mL min^−1 with a linear gradient starting at 8% B for 0.5 minutes, ramped to 100% B in 8 minutes then held at 100% for 2.0 minutes followed by equilibration at 8% B for 2.5 minutes (A = 1% methanol in HPLC grade water, B = 95% methanol in HPLC grade water, both containing 0.1% acetic acid). The mass spectrometer was operated in positive ion SWATH mode. Briefly this mode comprises a TOF scan of 50 millisecond duration followed by small segments of the mass range being transmitted through the quadrupole, fragmented in the collision cell and full TOF mass spectra taken of the transformation products. Data from these experiments was examined using the Masterview software (ABSciex).
Potential transformation products identified using TOF mass spectrometry and other potential transformation products identified from literature were then re-examined by HPLC/ triple quadrupole mass spectrometry using multiple reaction monitoring. Product ions used were as identified from QTOF data or from literature references and parameters such as collision energy optimised by repeated injections of samples for compounds detected. […]

[2] = tested on: prawn (Penaeus monodon) larvae; assay: Prawn larvae assay, metamorphosis of nauplii into protozoea (24 h static); assay type: in vivo
Description: The giant tiger prawn (Penaeus monodon) can be found throughout the tropical Indo-Pacific region and can be obtained from aquaculture facilities and has a well-described life cycle. The aim of the larval prawn assay was to determine whether the herbicides and transformation products inhibit early naupliar development. Prawn eggs hatch into their first larval stage (nauplii), typically 12–15 h after spawning. During development the nauplii are lecithotrophic, and over the course of the next 36 h, nauplii pass through 6 sub-stages before metamorphosing into protozoae[67],[68].
Freshly hatched nauplii were harvested by light attraction over 30 min, and washed and aerated for 10 min with seawater, and transported to AIMS in Townsville, Queensland. […] The toxicity assays were performed in incubator shakers (set to 30 °C) under very low light and with gentle shaking to prevent individuals adhering to the side of experimental containers.
The larval stock was gently concentrated via reverse-gravity filtration to a higher density before dispensing 8–10 individuals per 20 ml glass scintillation vials. Additional positive control treatments in the form of 4 concentrations of copper II chloride solution (2 to 900 µg l^−1 Cu), were included for test validation. The static assay was terminated after 24 h and 10% seawater formalin was added as a preservative for later microscopy. Metamorphosis was considered successful when nauplii had developed into protozoea.
The model was constrained by applying a lower limit of 0% inhibition and all curves were tested for normality of the residuals and a replicate test was applied to assess the goodness of fit[36]. The probability that ICX values generated by the logistic curves were statistically different between parent and aged herbicide solutions was tested by applying the F test in Graph Pad Prism v6. ICXs were considered different when p < 0.05. Where inhibition data could not be fitted to logistic curves, one-way analysis of variance (ANOVA) was performed to identify treatments which caused significant (p < 0.05) inhibition comparison with control treatments (NCSS v9, Utah, USA). The larval prawn experimental data was arcsine square root transformed prior to statistical analysis.

[3] = 24 h, vs solvent control, ANOVA p < 0.05, aged solutions as concentration of parent herbicide
[4] = Penaeus monodon (giant tiger prawn), in vivo, 24 h

SMILES | Transformation product concentration [1] [µg/L] | LOEC, prawn larval metamorphosis [2, 3] [µg/L] | NOEC, prawn larval metamorphosis [2, 3] [µg/L] | LOEC, prawn larval metamorphosis [2, 4] [µg/L] | Effect on prawn larval metamorphosis (in words) ([2]; in vivo) | Transformation product concentration ([1]; listed as Desisopropyl Atrazine) [µg/L]
Nc1ccc(Cl)c(Cl)c1 [3,4-DCA, 3,4-dichloroaniline] | 2.1 | 188 | 54 | – | – | –
CC(C)Nc1nc(N)nc(Cl)n1 [DEA, desethylatrazine] | 36 | – | – | 3.8 | significantly inhibiting metamorphosis at all concentrations tested | –
CCNc1nc(N)nc(Cl)n1 [DIA, desisopropylatrazine] | – | – | – | 3.5 | significantly inhibiting metamorphosis at all concentrations tested | 5.1
